Laboratory results from PMC8708580, “Structure Revision and Protein Tyrosine Phosphatase Inhibitory Activity of Drazepinone” (Marine Drugs, 2021).
Like-named read-outs stand apart in the source and are kept apart here.

What was measured:
PTP1B = target: T1, PTP1B (Homo sapiens, UniProt P18031); assay: PTP inhibitory activity assay, PTP1B; assay type: biochemical; conditions: in vitro; Na3VO4 positive control
T1 sequence (P18031 1-435): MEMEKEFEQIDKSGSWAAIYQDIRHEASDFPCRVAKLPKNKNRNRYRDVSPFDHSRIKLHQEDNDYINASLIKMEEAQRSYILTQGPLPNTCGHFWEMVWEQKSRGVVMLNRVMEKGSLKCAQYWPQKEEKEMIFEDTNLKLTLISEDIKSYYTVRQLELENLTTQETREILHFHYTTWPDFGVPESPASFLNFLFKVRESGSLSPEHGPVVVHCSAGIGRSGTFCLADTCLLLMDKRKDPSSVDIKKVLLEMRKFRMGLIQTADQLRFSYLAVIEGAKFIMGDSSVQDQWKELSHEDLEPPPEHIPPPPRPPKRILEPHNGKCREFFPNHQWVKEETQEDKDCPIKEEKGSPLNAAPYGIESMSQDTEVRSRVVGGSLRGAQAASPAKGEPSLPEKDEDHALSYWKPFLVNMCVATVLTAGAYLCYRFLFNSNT
Method: Thus, the isolated compounds (+)-1 and (−)-1 were tested for their PTP inhibitory activity against PTP1B, TCPTP, SHP1, and CD45.
PTP inhibitory activity of (+)-1 and (−)-1 against PTP1B, TCPTP, SHP1, and CD45 was tested in the same way as that described in the literature.

TCPTP = target: T2, TCPTP (Homo sapiens, UniProt P17706); assay: PTP inhibitory activity assay, TCPTP; assay type: biochemical; conditions: in vitro; Na3VO4 positive control
T2 sequence (P17706 1-415): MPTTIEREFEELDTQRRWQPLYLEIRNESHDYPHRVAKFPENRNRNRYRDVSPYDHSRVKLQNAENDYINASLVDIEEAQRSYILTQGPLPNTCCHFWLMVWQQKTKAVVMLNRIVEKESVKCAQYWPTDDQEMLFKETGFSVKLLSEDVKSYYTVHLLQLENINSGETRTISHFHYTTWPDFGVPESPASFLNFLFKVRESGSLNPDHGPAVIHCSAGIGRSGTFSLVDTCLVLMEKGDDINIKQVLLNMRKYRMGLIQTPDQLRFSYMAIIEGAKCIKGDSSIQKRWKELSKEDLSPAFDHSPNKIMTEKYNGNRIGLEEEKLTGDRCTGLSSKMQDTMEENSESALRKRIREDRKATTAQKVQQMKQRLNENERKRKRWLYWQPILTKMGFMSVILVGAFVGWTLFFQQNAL
Method: (§1) Protein tyrosine phosphatases (PTPs), including PTP1B, T-cell PTP (TCPTP), Src homology-2 domain-containing PTP-1 (SHP1), and CD45 PTP (CD45), a family of enzymes that hydrolytically remove phosphate groups from proteins, have attracted much attention recently for drug discovery. […] Thus, the isolated compounds (+)-1 and (−)-1 were tested for their PTP inhibitory activity against PTP1B, TCPTP, SHP1, and CD45.
(§2) PTP inhibitory activity of (+)-1 and (−)-1 against PTP1B, TCPTP, SHP1, and CD45 was tested in the same way as that described in the literature. Na3VO4 was used as the positive control.

CD45 = target: T3, CD45 (Homo sapiens, UniProt P08575); assay: PTP inhibitory activity assay, CD45; assay type: biochemical
T3 sequence (P08575 26-1306): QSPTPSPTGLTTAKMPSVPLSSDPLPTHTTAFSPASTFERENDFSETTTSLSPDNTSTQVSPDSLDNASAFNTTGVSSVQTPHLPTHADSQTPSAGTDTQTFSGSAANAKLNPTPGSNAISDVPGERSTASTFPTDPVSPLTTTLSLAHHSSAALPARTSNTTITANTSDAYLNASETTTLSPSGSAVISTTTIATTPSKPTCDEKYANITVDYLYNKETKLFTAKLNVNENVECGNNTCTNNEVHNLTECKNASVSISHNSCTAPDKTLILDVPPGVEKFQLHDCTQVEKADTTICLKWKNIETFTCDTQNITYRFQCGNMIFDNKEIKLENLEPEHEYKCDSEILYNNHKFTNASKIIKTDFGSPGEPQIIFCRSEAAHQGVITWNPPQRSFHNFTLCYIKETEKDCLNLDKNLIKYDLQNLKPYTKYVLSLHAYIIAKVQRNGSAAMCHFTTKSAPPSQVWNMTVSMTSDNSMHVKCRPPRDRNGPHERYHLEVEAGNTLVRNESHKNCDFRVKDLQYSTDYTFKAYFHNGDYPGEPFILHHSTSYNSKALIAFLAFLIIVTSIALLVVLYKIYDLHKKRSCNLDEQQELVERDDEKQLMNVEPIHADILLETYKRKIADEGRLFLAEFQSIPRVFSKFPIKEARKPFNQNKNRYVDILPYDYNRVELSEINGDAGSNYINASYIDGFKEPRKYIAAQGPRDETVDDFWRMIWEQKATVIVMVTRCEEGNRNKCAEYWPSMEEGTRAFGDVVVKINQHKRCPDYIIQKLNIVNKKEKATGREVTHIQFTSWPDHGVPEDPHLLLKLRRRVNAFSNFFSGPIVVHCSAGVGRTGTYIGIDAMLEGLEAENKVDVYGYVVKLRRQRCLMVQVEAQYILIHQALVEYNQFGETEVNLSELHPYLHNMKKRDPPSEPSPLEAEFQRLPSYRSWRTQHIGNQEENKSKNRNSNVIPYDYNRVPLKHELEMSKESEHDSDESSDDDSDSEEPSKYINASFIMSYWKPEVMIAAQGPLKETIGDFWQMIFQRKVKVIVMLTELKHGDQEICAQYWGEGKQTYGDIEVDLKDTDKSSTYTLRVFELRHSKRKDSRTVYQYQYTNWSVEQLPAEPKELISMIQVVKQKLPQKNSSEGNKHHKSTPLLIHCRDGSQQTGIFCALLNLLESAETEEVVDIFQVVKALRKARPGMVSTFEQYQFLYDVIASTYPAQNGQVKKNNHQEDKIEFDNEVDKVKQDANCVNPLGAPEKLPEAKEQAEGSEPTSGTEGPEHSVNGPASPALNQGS
Method: as §1, §2

[1] = design: method as in PMID 15771896; conditions: at a concentration of 2.0 μg/μL; cited from earlier work
[2] = design: method as in PMID 15771896; conditions: at a concentration of 2.0 μg/μL; cited from earlier work; remark: listed apart in the source
[3] = in vitro, Na3VO4 positive control

IC50 (PTP1B) | IC50 PTP1B (PTP1B) | IC50 (TCPTP) | IC50 TCPTP (TCPTP) | IC50 (CD45) | IC50 CD45 (CD45; [3]) | IC50 (CD45; [3]) | Structure (SMILES) | herbicidal properties [1] | zootoxic activity [2]
> 85.2 µM | no activity | > 85.2 µM | no activity | > 85.2 µM | no activity | – | CC1=CC2(C)Oc3c(-c4ccccc4)c[nH]c(=O)c3C2C1C (single isomer, unassigned; (+)) [(+)-1] | – | –
– | – | – | – | – | – | – | CC1=CC(C)C2c3cc4ccccc4cc3OC2(C)NC1=O (stereo not shown) [drazepinone, Drazepinone] | broad-spectrum herbicidal properties | low zootoxic activity
5.32 µM | – | 42.6 µM | – | – | – | > 85.2 µM | CC1=CC2(C)Oc3c(-c4ccccc4)c[nH]c(=O)c3C2C1C (single isomer, unassigned; (-)) [(−)-1] | – | –
– | – | – | 3.13 µg/mL | – | 6.25 µg/mL | – | [Na+].[Na+].[Na+].[O]=[V]([O-])([O-])[O-] [Na3VO4, reference compound] | – | –
